Measurements from article PMC5218480 (PLoS ONE, 2017).

Tested on: MV-4-11 cells
Assay: Gene expression microarray analysis (Affymetrix PrimeView) and GSEA
Assay type: cell-based, human
Parameters: RFU PODN (11730768_x_at) / Fold change /veh PODN (11730768_x_at) / RFU LINC00158 (11744669_a_at) / Fold change /veh LINC00158 (11744669_a_at) / RFU DUSP10 (11751237_a_at) / Fold change /veh DUSP10 (11751237_a_at) / RFU ID3 (11757404_x_at) / Fold change /veh ID3 (11757404_x_at) / RFU PLEKHG5 (11737974_s_at) / Fold change /veh PLEKHG5 (11737974_s_at) / RFU LRRC4B (11730491_at) / Fold change /veh LRRC4B (11730491_at) / RFU GIMAP4 (11747438_a_at) / Fold change /veh GIMAP4 (11747438_a_at) / RFU KRT8 (11758183_x_at) / Fold change /veh KRT8 (11758183_x_at) / RFU CNN1 (11734310_a_at) / Fold change /veh CNN1 (11734310_a_at) / RFU VPS37D (11726825_at) / Fold change /veh VPS37D (11726825_at) / RFU C10orf10 (11716522_x_at) / Fold change /veh C10orf10 (11716522_x_at) / RFU KIR2DL2 /// KIR2DL4 /// KIR2DL5A /// KIR2DL5B /// KIR2DS1 /// KIR2DS2 /// KIR2DS3 /// KIR2DS4 /// KIR3DL3 /// KIR3DL3 /// KIR3DS1 (11738374_at) / Fold change /veh KIR2DL2 /// KIR2DL4 /// KIR2DL5A /// KIR2DL5B /// KIR2DS1 /// KIR2DS2 /// KIR2DS3 /// KIR2DS4 /// KIR3DL3 /// KIR3DL3 /// KIR3DS1 (11738374_at) / RFU C1QL1 (11718748_at) / Fold change /veh C1QL1 (11718748_at) / RFU TMPRSS4 (11747572_a_at) / Fold change /veh TMPRSS4 (11747572_a_at) / RFU HAMP (11756126_x_at) / Fold change /veh HAMP (11756126_x_at) / RFU RNFT2 (11725882_a_at) / Fold change /veh RNFT2 (11725882_a_at) / RFU NR4A2 (11747474_a_at) / Fold change /veh NR4A2 (11747474_a_at) / RFU ABCC12 (11746883_a_at) / Fold change /veh ABCC12 (11746883_a_at) / RFU TMEM136 (11760407_x_at) / Fold change /veh TMEM136 (11760407_x_at) / RFU CLDN22 /// WWC2 (11732394_at) / Fold change /veh CLDN22 /// WWC2 (11732394_at) / RFU HLA-DPB1 (11760878_x_at) / Fold change /veh HLA-DPB1 (11760878_x_at) / RFU SPINT1 (11716480_a_at) / Fold change /veh SPINT1 (11716480_a_at) / RFU GAP43 (11754022_s_at) / Fold change /veh GAP43 (11754022_s_at) / RFU A4GNT (11735810_at) / Fold change /veh A4GNT (11735810_at) / RFU PRB3 (11715151_x_at) / Fold change /veh PRB3 (11715151_x_at) / RFU TUBB4B (11761932_at) / Fold change /veh TUBB4B (11761932_at) / RFU CAPN14 (11732068_a_at) / Fold change /veh CAPN14 (11732068_a_at) / RFU TMCC2 (11721928_a_at) / Fold change /veh TMCC2 (11721928_a_at) / RFU IRGQ (11745062_a_at) / Fold change /veh IRGQ (11745062_a_at) / RFU FAM174B (11720279_a_at) / Fold change /veh FAM174B (11720279_a_at) / RFU TMPRSS4 (11748680_a_at) / Fold change /veh TMPRSS4 (11748680_a_at) / RFU FAM212B (11763350_a_at) / Fold change /veh FAM212B (11763350_a_at) / RFU PLEKHG5 (11743358_a_at) / Fold change /veh PLEKHG5 (11743358_a_at) / RFU ZSCAN30 (11745921_a_at) / Fold change /veh ZSCAN30 (11745921_a_at) / RFU CMKLR1 (11741424_a_at) / Fold change /veh CMKLR1 (11741424_a_at) / RFU LOC101060620 /// MAPK8IP1 (11723275_at) / Fold change /veh LOC101060620 /// MAPK8IP1 (11723275_at) / RFU SPTSSB (11747773_x_at) / Fold change /veh SPTSSB (11747773_x_at) / RFU PRSS12 (11739890_at) / Fold change /veh PRSS12 (11739890_at) / RFU BIN1 (11741810_x_at) / Fold change /veh BIN1 (11741810_x_at) / RFU WNT11 (11732464_a_at) / Fold change /veh WNT11 (11732464_a_at) / RFU C10orf10 (11716521_a_at) / Fold change /veh C10orf10 (11716521_a_at) / RFU C5orf56 (11738089_at) / Fold change /veh C5orf56 (11738089_at) / RFU CYB561 (11721691_x_at) / Fold change /veh CYB561 (11721691_x_at) / RFU ANKRD19P (11752326_a_at) / Fold change /veh ANKRD19P (11752326_a_at) / RFU OR2T12 /// OR2T33 /// OR2T8 (11738714_s_at) / Fold change /veh OR2T12 /// OR2T33 /// OR2T8 (11738714_s_at) / RFU VCAN (11748164_a_at) / Fold change /veh VCAN (11748164_a_at) / RFU JSRP1 (11732532_at) / Fold change /veh JSRP1 (11732532_at) / RFU KRTAP10-11 (11738290_x_at) / Fold change /veh KRTAP10-11 (11738290_x_at) / RFU MYO3A (11730013_a_at) / Fold change /veh MYO3A (11730013_a_at) / RFU EBF3 (11725865_a_at) / Fold change /veh EBF3 (11725865_a_at) / RFU CAMK2N1 (11719241_x_at) / Fold change /veh CAMK2N1 (11719241_x_at) / RFU C5orf56 (11738088_a_at) / Fold change /veh C5orf56 (11738088_a_at) / RFU OLFML3 (11715873_a_at) / Fold change /veh OLFML3 (11715873_a_at) / RFU LOC100653217 /// NTM (11731650_a_at) / Fold change /veh LOC100653217 /// NTM (11731650_a_at) / RFU MAPK11 (11762145_a_at) / Fold change /veh MAPK11 (11762145_a_at) / RFU FIZ1 (11724087_x_at) / Fold change /veh FIZ1 (11724087_x_at) / RFU OASL (11726364_x_at) / Fold change /veh OASL (11726364_x_at) / RFU SOX15 (11748057_x_at) / Fold change /veh SOX15 (11748057_x_at) / RFU CD79A (11719716_a_at) / Fold change /veh CD79A (11719716_a_at) / RFU HIST1H1D (11736915_at) / Fold change /veh HIST1H1D (11736915_at) / RFU CASKIN2 (11723855_a_at) / Fold change /veh CASKIN2 (11723855_a_at) / RFU LOC730098 (11760151_x_at) / Fold change /veh LOC730098 (11760151_x_at) / RFU OR4N2 (11742367_at) / Fold change /veh OR4N2 (11742367_at) / RFU PRRT2 (11749266_a_at) / Fold change /veh PRRT2 (11749266_a_at) / RFU SNX32 (11753110_a_at) / Fold change /veh SNX32 (11753110_a_at) / RFU CDHR5 (11726645_a_at) / Fold change /veh CDHR5 (11726645_a_at) / RFU RCAN1 (11760418_a_at) / Fold change /veh RCAN1 (11760418_a_at) / RFU FAM167A (11723789_a_at) / Fold change /veh FAM167A (11723789_a_at) / RFU FAM26E (11764081_at) / Fold change /veh FAM26E (11764081_at) / RFU ISYNA1 (11749810_s_at) / Fold change /veh ISYNA1 (11749810_s_at) / RFU ACY1 (11761880_at) / Fold change /veh ACY1 (11761880_at) / RFU 11764098_at / Fold change /veh 11764098_at / RFU SAMD14 (11745864_x_at) / Fold change /veh SAMD14 (11745864_x_at) / RFU NPB (11741838_a_at) / Fold change /veh NPB (11741838_a_at) / RFU TMPRSS6 (11731388_a_at) / Fold change /veh TMPRSS6 (11731388_a_at) / RFU KRTAP10-2 (11738614_at) / Fold change /veh KRTAP10-2 (11738614_at) / RFU ARHGAP8 /// PRR5-ARHGAP8 (11727945_x_at) / Fold change /veh ARHGAP8 /// PRR5-ARHGAP8 (11727945_x_at) / RFU KRTAP5-7 /// NADSYN1 (11734609_at) / Fold change /veh KRTAP5-7 /// NADSYN1 (11734609_at) / RFU RASL12 (11751679_a_at) / Fold change /veh RASL12 (11751679_a_at) / RFU CDKN2B (11736163_a_at) / Fold change /veh CDKN2B (11736163_a_at) / RFU PRF1 (11729649_at) / Fold change /veh PRF1 (11729649_at) / RFU, ZNF638 /// ZNF638-IT1 / Fold change vs veh, ZNF638 /// ZNF638-IT1 / RFU, PANK3 / Fold change vs veh, PANK3 / RFU, SH3YL1 / Fold change vs veh, SH3YL1 / RFU, ZEB2 / Fold change vs veh, ZEB2 / RFU, NRIP1 / Fold change vs veh, NRIP1 / RFU, PTTG1IP / Fold change vs veh, PTTG1IP / RFU, CAPN2 / Fold change vs veh, CAPN2 / RFU, MED14 / Fold change vs veh, MED14 / RFU, SNORA58 / Fold change vs veh, SNORA58 / RFU, C1orf63 / Fold change vs veh, C1orf63 / RFU, LRRFIP1 / Fold change vs veh, LRRFIP1 / RFU, NDUFAF7 / Fold change vs veh, NDUFAF7 / RFU, SLC12A2 / Fold change vs veh, SLC12A2 / RFU, IBTK / Fold change vs veh, IBTK / RFU, ESF1 / Fold change vs veh, ESF1 / Fold change vs veh, TMEM50B / RFU, TAOK1 / Fold change vs veh, TAOK1 / RFU, ACBD3 / Fold change vs veh, ACBD3 / RFU, TMA16 / Fold change vs veh, TMA16 / RFU, RWDD3 / Fold change vs veh, RWDD3 / RFU, BCAT1 / Fold change vs veh, BCAT1 / RFU, EDEM3 / Fold change vs veh, EDEM3 / RFU, TMEM33 / Fold change vs veh, TMEM33 / RFU, WDR75 / Fold change vs veh, WDR75 / RFU, AHCTF1 / Fold change vs veh, AHCTF1 / RFU, TFRC / Fold change vs veh, TFRC / RFU, ZDHHC17 / Fold change vs veh, ZDHHC17 / RFU, NOM1 / Fold change vs veh, NOM1 / RFU, ARL8B / Fold change vs veh, ARL8B / RFU, ZBTB11 / Fold change vs veh, ZBTB11 / RFU, TAMM41 / Fold change vs veh, TAMM41 / RFU, KIAA1704 /// LOC100996395 / Fold change vs veh, KIAA1704 /// LOC100996395 / RFU, ING1 / Fold change vs veh, ING1 / RFU, TRMT61B / Fold change vs veh, TRMT61B / RFU, FUBP3 / Fold change vs veh, FUBP3 / RFU, TP53 / Fold change vs veh, TP53 / RFU, TNKS2 / Fold change vs veh, TNKS2 / RFU, ZFP14 / Fold change vs veh, ZFP14 / RFU, ACTR2 / Fold change vs veh, ACTR2 / RFU, PPP3R1 / Fold change vs veh, PPP3R1 / RFU, PIK3R1 / Fold change vs veh, PIK3R1 / RFU, HNRNPA1 / Fold change vs veh, HNRNPA1 / RFU, RNF170 / Fold change vs veh, RNF170 / RFU, ZNF28 / Fold change vs veh, ZNF28 / RFU, RNGTT / Fold change vs veh, RNGTT / RFU, OGT / Fold change vs veh, OGT / RFU, BRD1 / Fold change vs veh, BRD1 / RFU, MARS / Fold change vs veh, MARS / RFU, ZNF655 / Fold change vs veh, ZNF655 / RFU, FAHD1 / Fold change vs veh, FAHD1 / RFU, BDP1 / Fold change vs veh, BDP1 / RFU, LRRCC1 / Fold change vs veh, LRRCC1 / RFU, ARID1A / Fold change vs veh, ARID1A / RFU, ZNF146 / Fold change vs veh, ZNF146 / RFU, ZNF330 / Fold change vs veh, ZNF330 / RFU, GPN3 / Fold change vs veh, GPN3 / RFU, C9orf123 / Fold change vs veh, C9orf123 / RFU, N4BP2L2 / Fold change vs veh, N4BP2L2 / RFU, ARFIP1 / Fold change vs veh, ARFIP1 / RFU, FAM179B / Fold change vs veh, FAM179B / RFU, BCL10 / Fold change vs veh, BCL10 / RFU, UHRF1BP1L / Fold change vs veh, UHRF1BP1L / RFU, BET1 / Fold change vs veh, BET1 / RFU, CNOT2 / Fold change vs veh, CNOT2 / RFU, ZNF268 / Fold change vs veh, ZNF268 / Fold change vs veh, ZNF507 / RFU, DGCR2 / Fold change vs veh, DGCR2 / RFU, WDSUB1 / Fold change vs veh, WDSUB1 / Fold change vs veh, HSP90B1 /// MIR3652 / RFU, ADSS / Fold change vs veh, ADSS / RFU, GK / Fold change vs veh, GK / RFU, ZNF148 / Fold change vs veh, ZNF148 / RFU, TAF9 / Fold change vs veh, TAF9 / RFU, SLC1A5 / Fold change vs veh, SLC1A5 / RFU, SLMO2 / Fold change vs veh, SLMO2 / RFU, ABCC4 / Fold change vs veh, ABCC4 / RFU, LOC101060439 /// RAP1B / Fold change vs veh, LOC101060439 /// RAP1B / RFU, RFX7 / Fold change vs veh, RFX7 / RFU, GTPBP10 / Fold change vs veh, GTPBP10 / RFU, CNEP1R1 / Fold change vs veh, CNEP1R1 / RFU, BIVM-ERCC5 /// ERCC5 / Fold change vs veh, BIVM-ERCC5 /// ERCC5 / RFU, ILF3 / Fold change vs veh, ILF3 / RFU 11762660_at / Fold change /veh 11762660_at / RFU VCAN (11757783_s_at) / Fold change /veh VCAN (11757783_s_at) / RFU DDX43 (11728927_at) / Fold change /veh DDX43 (11728927_at) / RFU KRT8 (11758188_x_at) / Fold change /veh KRT8 (11758188_x_at) / RFU NKD1 (11759106_at) / Fold change /veh NKD1 (11759106_at) / RFU SRD5A1 (11742802_a_at) / Fold change /veh SRD5A1 (11742802_a_at) / RFU TPSAB1 /// TPSB2 (11721975_s_at) / Fold change /veh TPSAB1 /// TPSB2 (11721975_s_at) / RFU GSTM3 (11746129_a_at) / Fold change /veh GSTM3 (11746129_a_at) / RFU IL23R (11737362_x_at) / Fold change /veh IL23R (11737362_x_at) / RFU TMEM51 (11727254_a_at) / Fold change /veh TMEM51 (11727254_a_at) / RFU PIWIL2 (11732686_x_at) / Fold change /veh PIWIL2 (11732686_x_at) / RFU ORM1 (11744905_x_at) / Fold change /veh ORM1 (11744905_x_at) / RFU CCDC152 (11743942_at) / Fold change /veh CCDC152 (11743942_at) / RFU ECM1 (11717891_a_at) / Fold change /veh ECM1 (11717891_a_at) / RFU IL23R (11748794_a_at) / Fold change /veh IL23R (11748794_a_at) / RFU TNFAIP8L3 (11732012_x_at) / Fold change /veh TNFAIP8L3 (11732012_x_at) / RFU MBOAT4 (11741988_at) / Fold change /veh MBOAT4 (11741988_at) / RFU 11764193_at / Fold change /veh 11764193_at / RFU TMEM53 (11763286_at) / Fold change /veh TMEM53 (11763286_at) / RFU MAGEB2 (11727129_at) / Fold change /veh MAGEB2 (11727129_at) / RFU TMEM200A (11744735_a_at) / Fold change /veh TMEM200A (11744735_a_at) / RFU CCDC152 (11751479_a_at) / Fold change /veh CCDC152 (11751479_a_at) / RFU FAM211A (11726209_a_at) / Fold change /veh FAM211A (11726209_a_at) / RFU RGS16 (11746705_a_at) / Fold change /veh RGS16 (11746705_a_at) / RFU VCAN (11755009_s_at) / Fold change /veh VCAN (11755009_s_at) / RFU RHOB (11743442_s_at) / Fold change /veh RHOB (11743442_s_at) / RFU RGS16 (11720943_a_at) / Fold change /veh RGS16 (11720943_a_at) / RFU RGS16 (11720944_at) / Fold change /veh RGS16 (11720944_at) / RFU, VPS4B / Fold change vs veh, VPS4B / RFU, CREB1 / Fold change vs veh, CREB1 / RFU, DNAJC13 / Fold change vs veh, DNAJC13 / RFU, GNAQ / Fold change vs veh, GNAQ / RFU, CDK5R1 / Fold change vs veh, CDK5R1 / RFU, ZRANB3 / Fold change vs veh, ZRANB3 / RFU, CUL4A / Fold change vs veh, CUL4A / RFU, CCNY / Fold change vs veh, CCNY / RFU, UFL1 / Fold change vs veh, UFL1 / RFU, COG3 / Fold change vs veh, COG3 / RFU, DIAPH2 / Fold change vs veh, DIAPH2 / RFU, SKA2 / Fold change vs veh, SKA2 / RFU, AFF3 / Fold change vs veh, AFF3 / RFU, LMF1 / Fold change vs veh, LMF1 / RFU, IPO11 / Fold change vs veh, IPO11 / RFU, DFFB / Fold change vs veh, DFFB / RFU, FOXP1 / Fold change vs veh, FOXP1 / RFU, CARD8 / Fold change vs veh, CARD8 / RFU, STRN3 / Fold change vs veh, STRN3 / RFU, ADK / Fold change vs veh, ADK / RFU, RASSF2 / Fold change vs veh, RASSF2 / RFU, WIPF1 / Fold change vs veh, WIPF1 / RFU, LARP1B / Fold change vs veh, LARP1B / RFU, RASA1 / Fold change vs veh, RASA1 / RFU, RB1 / Fold change vs veh, RB1 / RFU, PPFIA1 / Fold change vs veh, PPFIA1 / RFU, MAT2A / Fold change vs veh, MAT2A / RFU, CCT5 / Fold change vs veh, CCT5 / RFU, WDR92 / Fold change vs veh, WDR92 / RFU, CUX1 / Fold change vs veh, CUX1 / RFU, TTC7A / Fold change vs veh, TTC7A / RFU, TMEM135 / Fold change vs veh, TMEM135 / RFU, DEPTOR / Fold change vs veh, DEPTOR / RFU, CPM / Fold change vs veh, CPM / RFU, DNAJB6 / Fold change vs veh, DNAJB6 / RFU, CACNA2D3 / Fold change vs veh, CACNA2D3 / RFU, DTX4 / Fold change vs veh, DTX4 / RFU, TFCP2 / Fold change vs veh, TFCP2 / RFU, GMCL1 /// GMCL1P1 / Fold change vs veh, GMCL1 /// GMCL1P1 / RFU, AEBP2 / Fold change vs veh, AEBP2 / RFU, SNHG1 /// SNORD22 /// SNORD25 /// SNORD26 /// SNORD27 /// SNORD28 /// SNORD29 /// SNORD31 / Fold change vs veh, SNHG1 /// SNORD22 /// SNORD25 /// SNORD26 /// SNORD27 /// SNORD28 /// SNORD29 /// SNORD31 / Fold change (Aza/veh), C12orf56 (ProbeSet 11735607_a_at) / Fold change (ACY-1035/veh), C12orf56 (ProbeSet 11735607_a_at) / Fold change (Aza/veh), FGFR1OP (ProbeSet 11751329_s_at) / Fold change (ACY-1035/veh), FGFR1OP (ProbeSet 11751329_s_at) / Fold change (Aza/veh), VPS36 (ProbeSet 11739960_a_at) / Fold change (ACY-1035/veh), VPS36 (ProbeSet 11739960_a_at) / RFU SYPL1 (11715823_x_at) / Fold change /veh SYPL1 (11715823_x_at) / RFU IGFBP7 (11715501_s_at) / Fold change /veh IGFBP7 (11715501_s_at) / RFU REEP3 (11722064_at) / Fold change /veh REEP3 (11722064_at) / RFU IGLL1 (11728026_x_at) / Fold change /veh IGLL1 (11728026_x_at): dose or concentration left out as unconfirmed
Settings: ProbeSet 11728676_at; LIST B

## Nc1ccc(-c2cccs2)cc1NC(=O)c1ccc2c(c1)cc(C1CC1)n2CCN1CCOCC1 [ACY-1035]
  RFU, MED14: 202.11 RFU
